Drawing on patent publication US11691951B2 (Curtana Pharmaceuticals, Inc., priority 2015, dated 2023), this text covers IC50 for 58 compounds.

In general, IC50 refers to the concentration needed to halve the response being measured. A low value points to inhibition by little substance.

This assay has as its system GBM8 cells (human glioblastoma neurosphere cell culture). As to the kind of experiment: GBM8 viability assay (Cell Titer Glo luminescence, 3 days). The class given is cell-based. Particulars: 72 h, 3 days incubation. As to the method:
Example 283: GBM4 and GBM8 Viability Assay
Cell culture medium was prepared from a NSA proliferation kit (Neurocult) and NeuroCult supplements (Stemcell Tech Cat. #05751) and treated with 20 μL of 10 μg/mL rh EGF, 10 μL of 10 μg/mL rh bFGF and 10 μL of 0.2% Heparin. In this medium, human glioblastoma cells were cultured in ultra-low attachment tissue culture flasks until 1×10^6 cells ml was achieved (GBM4 and GBM8 are distinct neurosphere cell cultures derived from these human patient tissues). GBM4 and GBM8 cells were dissociated and 10 mL of media containing 4000 human glioblastoma cells per 90 uL were transferred to an ultra-low binding 96-well plate and incubated at 37° C. overnight. On the following day, 10 μL of a 1% DMSO solution of test compound in assay medium was added to wells containing the cell suspension and the mixture incubated at 37° C. for 3 days. At this time, the plate was removed from the incubator and allowed to reach room temperature. After about 30 minutes, 50 μL of Cell Titer Glo solution was added to each well and the plate shaken for 1 minute at low speed. After 10 minutes luminescence was recorded using a Tecan Safire2 reader.
Reduction in luminescence compared to DMSO only control wells was used to determine the percentage inhibition of cell growth. IC50s were calculated using the % inhibition of luminescence for serial dilutions of compounds fitted to a 4-parameter fit within the Prism (San Diego) curve fitting program.

In turn, `Cc1cc(NCCN)nc(NC(=O)Nc2ccc(F)c(C(F)(F)F)c2)n1` [Compound 110] showed an IC50 of under 1000 nM.
With `CCNc1cc(C)nc(NC(=O)Nc2ccc(OC)cc2)n1` [Compound 139] the figure was under 1000 nM; with `Cc1cccc(NC(=O)Nc2nc(C)cc(NCCCN(C)C)n2)c1` [Compound 209, 1-(4-((3-(dimethylamino)propyl)amino)-6-methylpyrimidin-2-yl)-3-(m-tolyl)urea], under 1000 nM.
With `Cc1cc(NCCCN)nc(NC(=O)Nc2ccc(C(F)(F)F)cc2)n1` [Compound 204] the figure was 1000 to 10000 nM.
In turn, `Cc1cc(NCCN)nc(NC(=O)Nc2ccc(C(F)(F)F)cc2)n1` [Compound 207] registered an IC50 of under 1000 nM.
Regarding `Cc1cccc(NC(=O)Nc2nc(C)cc(NCC(C)O)n2)c1` (stereo not shown) [Compound 219], the IC50 is under 1000 nM.
Compound `Cc1cc(NCCN)nc(NC(=O)Nc2ccc(OC(F)(F)F)cc2)n1` [Compound 87, 1-(4-((2-aminoethyl)amino)-6-methylpyrimidin-2-yl)-3-(4-(trifluoromethoxy)phenyl)urea] had an IC50 of under 1000 nM.
As to `Cc1cccc(NC(=O)Nc2nc(C)cc(NCCCCN)n2)c1` [Compound 216], the IC50 is under 1000 nM.
Compound `Cc1cc(NCCC(N)=O)nc(NC(=O)Nc2ccc(Cl)c(Cl)c2)n1` [Compound 19] had an IC50 of 1000 to 10000 nM.
With `Cc1cc(NCCCc2cnc[nH]2)nc(NC(=O)Nc2ccc(C)c(C)c2)n1` [Compound 266], the IC50 is under 1000 nM.
Regarding `CCNc1cc(C)nc(NC(=O)Nc2ccc(OC(F)(F)F)cc2)n1` [Compound 90], the IC50 is under 1000 nM.
With `Cc1ccc(NC(=O)Nc2nc(C)cc(NCCCc3cnc[nH]3)n2)cc1` [Compound 243] the figure was under 1000 nM; with `Cc1cc(NCC(O)CO)nc(NC(=O)Nc2cccc(C(F)(F)F)c2)n1` (stereo not shown) [Compound 187], under 1000 nM.
As for `Cc1cc(NCCCO)nc(NC(=O)Nc2ccccc2)n1` [Compound 70, 1-(4-((3-hydroxypropyl)amino)-6-methylpyrimidin-2-yl)-3-phenylurea], the figure is 1000 to 10000 nM.
With `Cc1cc(NCCCCN(C)C)nc(NC(=O)Nc2ccc(Cl)c(C(F)(F)F)c2)n1` [Compound 56] the figure was 1000 to 10000 nM; with `Cc1cc(NCCO)nc(NC(=O)Nc2ccc(Cl)c(Cl)c2)n1` [Compound 12], under 1000 nM; with `COc1ccc(NC(=O)Nc2nc(C)cc(NCCNC(C)=O)n2)cc1` [Compound 276, N-(2-((2-(3-(4-methoxyphenyl)ureido)-6-methylpyrimidin-4-yl)amino)ethyl)acetamide], under 1000 nM.
For `Cc1cc(NCCCCO)nc(NC(=O)Nc2ccc(C)c(C)c2)n1` [Compound 255], the IC50 is under 1000 nM.
`CNCCCNc1cc(C)nc(NC(=O)Nc2ccc3c(c2)OCO3)n1` [Compound 289, 1-(benzo[d][1,3]dioxol-5-yl)-3-(4-methyl-6-((3-(methylamino)propyl)amino)pyrimidin-2-yl)urea]: the IC50 was 1000 to 10000 nM.
For the compound `Cc1cc(NCC(O)CO)nc(NC(=O)Nc2ccc(C)c(C)c2)n1` (stereo not shown) [Compound 264], the half-maximal inhibitory concentration (IC50) is under 1000 nM.
As for `CC(=O)NCCNc1cc(C)nc(NC(=O)Nc2ccc(C(C)(C)C)cc2)n1` [Compound 309, N-(2-{2-[3-(4-tert-butyl-phenyl)-ureido]-6-methyl-pyrimidin-4-ylamino}-ethyl)-ace mid], the figure is under 1000 nM; as for `CNCCNc1cc(C)nc(NC(=O)Nc2ccccc2)n1` [Compound 82, 1-(4-methyl-6-((2-(methylamino)ethyl)amino)pyrimidin-2-yl)-3-phenylurea], 1000 to 10000 nM.
`Cc1cc(NCCN(C)C)nc(NC(=O)Nc2ccc3c(c2)OCCO3)n1` [Compound 294] showed an IC50 of under 1000 nM.
Turning to `Cc1cc(NCCCN)nc(NC(=O)Nc2cccc(C(F)(F)F)c2)n1` [Compound 192], the IC50 was under 1000 nM.
As to `Cc1cc(NCCCN(C)C)nc(NC(=O)Nc2ccc(C(F)(F)F)cc2)n1` [Compound 196, 1-(4-((3-(dimethylamino)propyl)amino)-6-methylpyrimidin-2-yl)-3-(4-(trifluoromethyl)phenyl)urea], the IC50 was under 1000 nM.
In the case of `Cc1cccc(NC(=O)Nc2nc(C)cc(NCCCc3ccccn3)n2)c1` [Compound 221], the IC50 fell in the range of 1000 to 10000 nM.
For the compound `CNCCNc1cc(C)nc(NC(=O)Nc2ccc(OC(F)(F)F)cc2)n1` [Compound 98, 1-(4-methyl-6-((2-(methylamino)ethyl)amino)pyrimidin-2-yl)-3-(4-(trifluoromethoxy)phenyl)urea], the IC50 was under 1000 nM.
With `CNCCCNc1cc(C)nc(NC(=O)Nc2ccc(OC(F)(F)F)cc2)n1` [Compound 99, 1-[4-Methyl-6-(3-methylamino-propylamino)-pyrimidin-2-yl]-3-(4-trifluoromethoxy-phenyl)-urea] the figure was under 1000 nM; with `Cc1cc(NCCCCN)nc(NC(=O)Nc2ccc(F)c(Cl)c2)n1` [Compound 160], under 1000 nM.
In turn, `Cc1cccc(NC(=O)Nc2nc(C)cc(NCCN(C)C)n2)c1` [Compound 215] showed an IC50 of under 1000 nM.
For the compound `Cc1cc(NCCCN(C)C)nc(N2CCN(c3ccc(Cl)c(Cl)c3)C2=O)n1` [Compound 36, 3-(3,4-dichlorophenyl)-1-{4-[3-(dimethylamino)propylamino]-6-methyl-2-pyrimidinyl}-2-imidazolidinone], the IC50 is under 1000 nM.
As to `Cc1ccc(NC(=O)Nc2nc(C)cc(NCCCCO)n2)cc1` [Compound 239], the half-maximal inhibitory concentration (IC50) is under 1000 nM.
`CCCCNc1cc(C)nc(NC(=O)Nc2ccc(OC)cc2)n1` [Compound 129] came in with an IC50 of under 1000 nM.
As for `Cc1cc(NCC2CCCNC2)nc(NC(=O)Nc2ccc(Cl)c(Cl)c2)n1` (stereo not shown) [Compound 27], the figure is under 1000 nM.
In turn, `Cc1cc(NCCN)nc(NC(=O)Nc2ccc3c(c2)OCCO3)n1` [Compound 293] registered an IC50 of 1000 to 10000 nM.
As for `CNCCCNc1cc(C)nc(NC(=O)Nc2ccccc2)n1` [Compound 83, 1-(4-methyl-6-((3-(methylamino)propyl)amino)pyrimidin-2-yl)-3-phenylurea], the figure is 1000 to 10000 nM.
As for `Cc1cccc(NC(=O)Nc2nc(C)cc(NCC(O)CO)n2)c1` (stereo not shown) [Compound 223], the IC50 was under 1000 nM.
For the compound `Cc1cc(NCCCN)nc(NC(=O)Nc2ccc3c(c2)OCO3)n1` [Compound 282], the IC50 was under 1000 nM.
Consider `Cc1cc(NCCCCO)nc(NC(=O)Nc2ccc(F)c(Cl)c2)n1` [Compound 163], for which the IC50 was under 1000 nM.
`Cc1cc(NCCCCN)nc(NC(=O)Nc2cccc(C(F)(F)F)c2)n1` [Compound 190] showed an IC50 of under 1000 nM.
On to `Cc1cccc(NC(=O)Nc2nc(C)cc(NCCCN)n2)c1` [Compound 210], for which the IC50 is under 1000 nM.
On to `CCNc1cc(C)nc(NC(=O)Nc2cccc(C)c2)n1` [Compound 224], for which the IC50 is under 1000 nM.
For `CNCCCNc1cc(C)nc(NC(=O)Nc2ccc(F)c(C(F)(F)F)c2)n1` [Compound 121], the IC50 is under 1000 nM.
Compound `Cc1cc(NCCCCN)nc(NC(=O)Nc2cccc(OC(F)(F)F)c2)n1` [Compound 173] displayed a 50% inhibitory concentration (IC50) of under 1000 nM.
In turn, `CNCCCNc1cc(C)nc(NC(=O)Nc2ccc3c(c2)OCCO3)n1` [Compound 299, 1-(2,3-dihydrobenzo[b][1,4]dioxin-6-yl)-3-(4-methyl-6-((3-(methylamino)propyl)amino)pyrimidin-2-yl)urea] yielded an IC50 of 1000 to 10000 nM.
In turn, `CC(=O)NCCNc1cc(C)nc(NC(=O)Nc2ccc(OC(F)(F)F)cc2)n1` [Compound 274, N-(3-((6-methyl-2-(3-(4-(trifluoromethoxy)phenyl)ureido)pyrimidin-4-yl)amino)ethyl)acetamide] gave an IC50 of under 1000 nM.
The compound `Cc1cc(NCCN(C)C)nc(NC(=O)Nc2ccc(OC(F)(F)F)cc2)n1` [Compound 88] registered an IC50 of under 1000 nM.
As for `COc1cccc(NC(=O)Nc2nc(C)cc(NCC3CCCNC3)n2)c1` (stereo not shown) [Compound 155], the figure is 1000 to 10000 nM.
With `CCNc1cc(C)nc(NC(=O)Nc2ccc(F)c(C(F)(F)F)c2)n1` [Compound 117] the figure was under 1000 nM.
`Cc1cc(NCC(O)CO)nc(NC(=O)Nc2ccc(OC(F)(F)F)cc2)n1` (stereo not shown) [Compound 96] returned an IC50 of under 1000 nM.
Turning to `CNCCCCNc1cc(C)nc(NC(=O)Nc2ccc(Cl)c(C(F)(F)F)c2)n1` [Compound 65], the half-maximal inhibitory concentration (IC50) is under 1000 nM.
With `Cc1cc(NCCCCN(C)C)nc(NC(=O)Nc2ccc(C)c(C)c2)n1` [Compound 256] the figure was under 1000 nM; with `CNCCNc1cc(C)nc(NC(=O)Nc2ccc(F)c(C(F)(F)F)c2)n1` [Compound 120, 1-(4-fluoro-3-(trifluoromethyl)phenyl)-3-(4-methyl-6-((2-(methylamino)ethyl)amino)pyrimidin-2-yl)urea], under 1000 nM; with `Cc1cc(NCCN)nc(NC(=O)Nc2cccc(OC(F)(F)F)c2)n1` [Compound 178], under 1000 nM.
`Cc1cc(NCCCCO)nc(NC(=O)Nc2cccc(OC(F)(F)F)c2)n1` [Compound 175]: the IC50 is under 1000 nM.
`Cc1cc(NCCN)nc(NC(=O)Nc2ccccc2)n1` [Compound 72, 1-(4-((2-aminoethyl)amino)-6-methylpyrimidin-2-yl)-3-phenylurea] came in with an IC50 of 1000 to 10000 nM.
With `Cc1cc(NCCCCN(C)C)nc(NC(=O)Nc2ccccc2)n1` [Compound 76] the figure was 1000 to 10000 nM; with `COC(=O)CCNc1cc(C)nc(NC(=O)Nc2cccc(C)c2)n1` [Compound 220], 1000 to 10000 nM.
